We go through 13 compounds from PubChem BioAssay (NCI).

Some test systems named below: EKVX NSCLC; OVCAR-5 ovarian; SR leukemia; SW-620 colon; U251 CNS; SF-268 CNS; OVCAR-8 ovarian; HOP-62 NSCLC; SK-OV-3 ovarian; MDA-MB-435.
Experiment in all cases: growth of human tumour cells (NCI), 48 h

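Where inhibition never reached the appropriate level, the endpoint shown equals the highest concentration tested. Otherwise, values were interpolated linearly from a five-concentration, 48-hour dose response in 96-well plates. Here, GI50 denotes the concentration required for 50% inhibition of growth. Definition used: TGI = concentration required for complete inhibition of growth.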

As to `O=C(COC(=O)c1cccc2c(=O)c3ccccc3[nH]c12)Nc1ccc(S(=O)(=O)Nc2ncccn2)cc1`, the TGI was greater than 100 µM in the experiment on EKVX NSCLC; greater than 100 µM in the experiment with OVCAR-5 ovarian; 91 µM with SR leukemia; greater than 100 µM in the experiment with SW-620 colon; 56.3 µM with U251 CNS; greater than 100 µM in the experiment on SF-268 CNS. For the same compound, the TGI in the experiment on OVCAR-8 ovarian, in the experiment with HOP-62 NSCLC and with SK-OV-3 ovarian was greater than 100 µM each time.
As to `CC(=O)OC1(C#N)CC2OC1C1N=NN(C(=O)OC(C)(C)C)C21` (centres undefined), the TGI in the experiment with EKVX NSCLC was greater than 100 µM; in the experiment on OVCAR-5 ovarian, greater than 100 µM; with SR leukemia, 57.8 µM; in the experiment with SW-620 colon, 23.1 µM; in the experiment on U251 CNS it was greater than 100 µM; with SF-268 CNS it was greater than 100 µM. Moreover, the TGI in the experiment with OVCAR-8 ovarian, in the experiment with HOP-62 NSCLC and in the experiment with SK-OV-3 ovarian was greater than 100 µM throughout.
Take `C[C@@]1(O)CCC[C@H]1n1c(=O)c(C(F)F)cc2cnc(NC3CCN(S(C)(=O)=O)CC3)nc21`: the GI50 with EKVX NSCLC was 1.75 µM; in the experiment with OVCAR-5 ovarian it was 1.21 µM; in the experiment with SR leukemia, 1.96 µM; in the experiment with SW-620 colon, 0.0891 µM; in the experiment on U251 CNS, 1.67 µM; in the experiment on SF-268 CNS it was 2.07 µM. Besides, the results for the GI50 with OVCAR-8 ovarian, in the experiment with HOP-62 NSCLC and with MDA-MB-435 were 2.11 µM, 2.03 µM and 1.4 µM, respectively. The TGI in the experiment with EKVX NSCLC is 5.92 µM; in the experiment on OVCAR-5 ovarian it was greater than 100 µM; with SR leukemia, greater than 100 µM; with SW-620 colon, 6.46 µM; in the experiment with U251 CNS it was greater than 100 µM; with SF-268 CNS, 7.34 µM. For the same compound, the TGI in the experiment with OVCAR-8 ovarian was greater than 100 µM; with HOP-62 NSCLC it was greater than 100 µM; with MDA-MB-435, 9.01 µM.
On to `COC(=O)C1=C(O)c2cc3c(cc2[C@H](c2cc(OC)c(OC)c(OC)c2)C1)OCO3`, for which the TGI with OVCAR-5 ovarian, with SR leukemia, in the experiment with SW-620 colon, in the experiment with U251 CNS, in the experiment on SF-268 CNS and with OVCAR-8 ovarian was greater than 100 µM each time. Also, the TGI in the experiment with HOP-62 NSCLC and in the experiment with SK-OV-3 ovarian was greater than 100 µM throughout.
On to `O=c1c(-c2nc3ccccc3[nH]2)cc2ccccc2n1Cc1cn(Cc2ccccc2Cl)nn1`, for which the GI50 was 2.74 µM in the experiment with EKVX NSCLC; 2.1 µM in the experiment with OVCAR-5 ovarian; 2.41 µM with SR leukemia; 2.87 µM in the experiment on SW-620 colon; 2.41 µM with U251 CNS; 2.4 µM in the experiment on SF-268 CNS. For the same compound, the GI50 with OVCAR-8 ovarian was 2.56 µM; in the experiment on MDA-MB-435, 1.9 µM. For the same compound, the TGI in the experiment with EKVX NSCLC came to 20.2 µM; with OVCAR-5 ovarian, 4.78 µM; with SR leukemia it was 8.64 µM; in the experiment with SW-620 colon it was 10.4 µM; with U251 CNS, 7.13 µM; in the experiment with SF-268 CNS it was 8.74 µM. Further, the TGI is 9.27 µM in the experiment with OVCAR-8 ovarian and 3.93 µM in the experiment with MDA-MB-435.
`Fc1ccc2c(c1)cc1ccc3cccc4ccc2c1c34`: the TGI in the experiment with EKVX NSCLC, in the experiment on OVCAR-5 ovarian, in the experiment with SR leukemia, with SW-620 colon, in the experiment with U251 CNS and in the experiment with SF-268 CNS was greater than 100 µM each time. Also, the TGI in the experiment with OVCAR-8 ovarian, in the experiment with HOP-62 NSCLC and with SK-OV-3 ovarian was greater than 100 µM in each case.
For `CC(=O)Oc1cc(Cl)c(OC(C)=O)c2c(OC(C)=O)c(C)c(O[Si](C)(C)C(C)(C)C)cc12`, the TGI came to 33.9 µM in the experiment with EKVX NSCLC; 19.1 µM in the experiment with SR leukemia; 8.85 µM in the experiment with SW-620 colon; 6.78 µM with U251 CNS; 26.2 µM with SF-268 CNS; 7.56 µM in the experiment on OVCAR-8 ovarian. Moreover, the TGI with HOP-62 NSCLC is 34 µM.
On to `CC(CCC(=O)O)c1ccc(Br)cc1` (centres undefined), for which the TGI in the experiment on EKVX NSCLC, with OVCAR-5 ovarian, with SR leukemia, in the experiment with SW-620 colon, with U251 CNS and in the experiment on SF-268 CNS was greater than 100 µM in each case. Further, the TGI in the experiment with OVCAR-8 ovarian, in the experiment on HOP-62 NSCLC and with SK-OV-3 ovarian was greater than 100 µM in each case.
Consider `C/C(=N\NS(=O)(=O)c1c(C)cc(C)cc1C)c1ccc[n+]([O-])n1`, for which the TGI in the experiment on EKVX NSCLC was 26 µM; in the experiment with OVCAR-5 ovarian, 56.1 µM; with SR leukemia, 57.7 µM; with SW-620 colon, 22.3 µM; in the experiment on U251 CNS it was greater than 100 µM; in the experiment with SF-268 CNS, 53.7 µM. Moreover, the TGI was 79 µM in the experiment with OVCAR-8 ovarian, greater than 100 µM in the experiment on HOP-62 NSCLC and greater than 100 µM in the experiment on SK-OV-3 ovarian.
In the case of `COc1c(N2CCN(CN3C(=O)C(=O)c4ccccc43)C(C)C2)c(F)cc2c(=O)c(C(=O)O)cn(C3CC3)c12` (centres undefined), the GI50 with EKVX NSCLC was greater than 100 µM; in the experiment on OVCAR-5 ovarian, 13.6 µM; with SR leukemia it was 32.1 µM; in the experiment on SW-620 colon, 33.5 µM; in the experiment with U251 CNS, greater than 100 µM; in the experiment on SF-268 CNS, 46 µM. Moreover, the GI50 was greater than 100 µM in the experiment on OVCAR-8 ovarian and 82.3 µM with MDA-MB-435. Besides, the TGI in the experiment with EKVX NSCLC is greater than 100 µM; with OVCAR-5 ovarian, 99.4 µM; in the experiment on SR leukemia it was greater than 100 µM; in the experiment on SW-620 colon it was greater than 100 µM; in the experiment on U251 CNS, greater than 100 µM; in the experiment on SF-268 CNS, greater than 100 µM. In addition, the TGI with OVCAR-8 ovarian and with MDA-MB-435 was greater than 100 µM in each case.
As to `[N-]=[N+]=NC1C2CC3CC(C2)CC1C3` (centres undefined), the TGI in the experiment with EKVX NSCLC, in the experiment on OVCAR-5 ovarian, with SR leukemia, in the experiment with SW-620 colon, with U251 CNS and in the experiment with OVCAR-8 ovarian was greater than 100 µM throughout. The TGI in the experiment on HOP-62 NSCLC and with SK-OV-3 ovarian was greater than 100 µM each time.
As for `OCCCCCNc1ccnc2cc(Cl)ccc12`, the TGI in the experiment on EKVX NSCLC was greater than 100 µM; in the experiment with OVCAR-5 ovarian it was greater than 100 µM; with SR leukemia, 40.8 µM; with SW-620 colon, greater than 100 µM; in the experiment with U251 CNS, greater than 100 µM; in the experiment on SF-268 CNS, greater than 100 µM. The TGI with OVCAR-8 ovarian, in the experiment with HOP-62 NSCLC and with SK-OV-3 ovarian was greater than 100 µM each time.
Consider `CC1(C)Oc2ccccc2[N+]([O-])=C1c1ccccc1`, for which the TGI in the experiment on SR leukemia, in the experiment on SW-620 colon, with U251 CNS, with SF-268 CNS, with OVCAR-8 ovarian and in the experiment on HOP-62 NSCLC was greater than 100 µM in each case. The compound further gave a TGI in the experiment with SK-OV-3 ovarian greater than 100 µM.
